Reference: patent publication USRE47739E1, “2-(pyridin-2-ylamino)-pyrido[2,3-D]pyrimidin-7-ones” (Warner-Lambert Company LLC, priority 2002, dated 2019)

What was measured:
neointima formation = conditions: rats; cited from earlier work
Cdk4/Cyclin D = Cdk4/Cyclin D (Homo sapiens, UniProt P11802); experiment: Assay for Inhibition of Cdk4/Cyclin D; assay type: biochemical; conditions: 25 μM ATP, retinoblastoma protein substrate, 25° C., 15 minutes
Description: (§1) The assays were carried out as described below.
Assay for Inhibition of Cdk4/Cyclin D
The Cdk4 enzyme assay for IC50 determination and kinetic evaluation is performed as follows. 96-well filter plates (Millipore MADVN6550) are used. […] Buffer A containing excess EDTA was used to determine the level of background ^32P in the absence of enzyme activity. All components except the ATP are added to the wells, and the plate is placed on a plate mixer for 2 minutes. The reaction is started by adding [^32P]ATP, and the plate is incubated at 25° C. for 15 minutes. The reaction is terminated by addition of 0.1 mL 20% trichloroacetic acid (TCA). The plate is kept at 4° C. for at least 1 hour to allow the substrate to precipitate. The wells are then washed five times with 0.2 mL 10% TCA, and ^32P incorporation is determined with a beta plate counter (Wallac Inc., Gaithersburg, Md.).

[1] = biological target: FGF receptor (FGFr) tyrosine kinase (Homo sapiens, UniProt P11362); experiment: Assay for Inhibition of FGFr; assay type: biochemical; conditions: 50 μM ATP, Poly (4:1) glutamate-tyrosine substrate, 25° C.
Description: as §1
Assay for Inhibition of FGFr
For FGF receptor (FGFr) tyrosine kinase assays 96-well plates (100 μL/incubation/well), and conditions are optimized to measure the incorporation of ^32P from [γ^32P]ATP into a glutamate-tyrosine co-polymer substrate. Briefly, to each well is added 82.5 μL incubation buffer B (25 mM Hepes (pH 7.0), 150 mM NaCl, 0.1% Triton X-100, 0.2 mM PMSF, 0.2 mM Na3VO4, 10 mM MnCl2) and 750 μg/mL Poly (4:1) glutamate-tyrosine followed by 2.5 μL of the test compound in buffer B and 5 μL of a 7.5 μg/μL FGFr solution to initiate the reaction. Following a 10-minute incubation at 25° C., […] [γ^32P]ATP (0.4 μCi plus 50 μM ATP) is added to each well, and samples are incubated for an additional 10 minutes at 25° C. The reaction is terminated by the addition of 100 μL 30% trichloroacetic acid (TCA) containing 20 mM sodium pyrophosphate and precipitation of material onto glass fiber mats (Wallac). […] Nonspecific activity is defined as radioactivity retained on the filters following incubation of samples with buffer alone (no enzyme). Specific enzymatic activity (enzyme plus buffer) is defined as total activity minus nonspecific activity.

Cdk2/Cyclin A = Cdk2/Cyclin A (Homo sapiens, UniProt P24941); experiment: Assay for Inhibition of Cdk2/Cyclin A; assay type: biochemical; conditions: 12 mM ATP (so in the source), retinoblastoma protein substrate, 25° C., 15 minutes
Description: as §1
Assay for Inhibition of Cdk2/Cyclin A
Cdk2 enzyme assays for IC50 determinations and kinetic evaluation are performed as follows. 96-well filter plates (Millipore MADVN6550) are used. […] All components except the ATP are added to the wells, and the plate is placed on a plate mixer for 2 minutes. The reaction is initiated by addition of [^32P]ATP, and the plate is incubated at 25° C. for 15 minutes. The reaction is terminated by addition of 0.1 mL 20% TCA. The plate is kept at 4° C. for at least 1 hour to allow the substrate to precipitate. The wells are then washed five times with 0.2 mL 10% TCA, and ^32P incorporation is determined with a beta plate counter (Wallac Inc., Gaithersburg, Md.).

Sequence of FGF receptor (FGFr) tyrosine kinase (P11362 22-822): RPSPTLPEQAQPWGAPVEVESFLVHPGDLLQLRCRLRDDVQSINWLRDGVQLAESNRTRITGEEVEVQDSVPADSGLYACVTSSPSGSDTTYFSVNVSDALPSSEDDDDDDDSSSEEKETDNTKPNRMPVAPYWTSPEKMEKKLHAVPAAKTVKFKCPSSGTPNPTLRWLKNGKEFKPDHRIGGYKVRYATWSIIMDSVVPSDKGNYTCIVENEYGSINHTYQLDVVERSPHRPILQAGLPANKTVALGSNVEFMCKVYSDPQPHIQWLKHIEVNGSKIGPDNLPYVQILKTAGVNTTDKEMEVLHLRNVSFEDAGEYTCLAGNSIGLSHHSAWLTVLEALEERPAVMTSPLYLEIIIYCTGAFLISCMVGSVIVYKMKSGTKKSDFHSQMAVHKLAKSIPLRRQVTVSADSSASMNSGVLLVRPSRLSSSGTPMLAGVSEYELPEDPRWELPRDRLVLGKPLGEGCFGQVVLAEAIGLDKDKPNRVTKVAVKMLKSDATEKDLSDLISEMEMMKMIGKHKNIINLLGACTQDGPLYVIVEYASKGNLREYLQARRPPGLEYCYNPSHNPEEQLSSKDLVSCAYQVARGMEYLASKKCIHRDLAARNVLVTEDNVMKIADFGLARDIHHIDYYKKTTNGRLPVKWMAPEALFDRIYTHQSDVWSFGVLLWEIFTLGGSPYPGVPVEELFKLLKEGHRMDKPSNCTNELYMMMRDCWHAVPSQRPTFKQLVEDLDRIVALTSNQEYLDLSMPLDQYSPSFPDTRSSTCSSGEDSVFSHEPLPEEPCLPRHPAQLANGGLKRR
Sequence of Cdk4/Cyclin D (P11802 whole entry, species assumed): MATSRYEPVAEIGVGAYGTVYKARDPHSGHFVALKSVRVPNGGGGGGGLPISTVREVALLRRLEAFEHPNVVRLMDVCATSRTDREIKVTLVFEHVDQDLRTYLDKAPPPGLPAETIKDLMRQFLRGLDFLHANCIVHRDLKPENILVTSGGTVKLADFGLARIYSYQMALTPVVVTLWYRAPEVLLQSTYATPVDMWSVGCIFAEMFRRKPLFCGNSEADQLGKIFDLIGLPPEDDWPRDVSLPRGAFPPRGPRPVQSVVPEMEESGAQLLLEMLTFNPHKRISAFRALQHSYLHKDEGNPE
Sequence of Cdk4/Cyclin D (P24385 whole entry partner, species assumed): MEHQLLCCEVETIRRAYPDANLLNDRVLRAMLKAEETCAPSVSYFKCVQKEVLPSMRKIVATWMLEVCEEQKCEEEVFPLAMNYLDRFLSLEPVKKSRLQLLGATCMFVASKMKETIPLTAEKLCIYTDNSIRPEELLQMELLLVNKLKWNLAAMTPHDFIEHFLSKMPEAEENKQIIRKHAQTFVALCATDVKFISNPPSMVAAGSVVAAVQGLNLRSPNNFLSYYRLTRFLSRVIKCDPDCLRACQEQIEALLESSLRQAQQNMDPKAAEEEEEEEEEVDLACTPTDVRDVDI

Row | SMILES | inhibition of neointima formation (neointima formation) | melting point [°C] | IC50 (Cdk4/Cyclin D) [nM] | IC50 [1] [nM] | IC50 (Cdk2/Cyclin A) [nM]
1 | COc1ccc(CNc2nc(N(CCO)CCO)nc3c2ncn3C(C)C)cc1 [CVT-313] | greater than 80% | – | – | – | –
2 | COCCN(CCOC)c1ccc(Nc2ncc3c(C)c(C(C)=O)c(=O)n(C4CCCC4)c3n2)nc1 [Example 55, 6-Acetyl-2-{5-[bis-(2-methoxy-ethyl)-amino]-pyridin-2-ylamino}-8-cyclopentyl-5-methyl-8H-pyrido[2,3-d]pyrimidin-7-one] | – | 138 | 24 | > 5000 | > 5000
